A word on the Emax: it is the maximal effect, on the per cent scale that the assay sets. In general, EC50 refers to the concentration at which the effect is half-maximal.

This note sets out measurements from patent US8389739B1, “Modulators of retinoid-related orphan receptor gamma” (Orphagen Pharmaceuticals, priority 2006, dated 2013).

Test [1] has as its target T1, mLXRα (Liver X receptor alpha) (Mus musculus, UniProt Q9Z0Y9).
T1 construct: 172-455; expressed in transfected cells; host or cells: CHO cells, transient transfection
T1 sequence (Q9Z0Y9 172-445 limits assumed): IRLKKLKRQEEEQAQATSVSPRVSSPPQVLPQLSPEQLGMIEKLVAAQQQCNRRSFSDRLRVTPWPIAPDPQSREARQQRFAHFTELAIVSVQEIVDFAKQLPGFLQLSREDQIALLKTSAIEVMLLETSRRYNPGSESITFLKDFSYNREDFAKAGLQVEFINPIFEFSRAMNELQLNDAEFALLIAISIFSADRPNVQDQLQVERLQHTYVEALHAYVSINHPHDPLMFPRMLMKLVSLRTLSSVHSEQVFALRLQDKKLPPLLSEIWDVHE
Put plainly: Transcriptional assay of LXRα (Gal4-LXRα hybrid). The class given is cell-based. The note with it: for EC50: Table 7, no unit printed for this column (b114 gives 1.5 μM for OR-1050), read-out: Transcriptional Assay of LXRα EC50; for specificity for RORγ versus LXRα: comparison of transcriptional assays for RORγ and LXRα (Table 7). Here is the method: (§1) A firefly luciferase reporter gene for Gal4 DBD hybrid receptors, such as Gal4-RORγ, contains five copies of the Gal4 17-mer response element in its promoter and the coding sequence for firefly luciferase (pG5-luc, Promega). CHO (Chinese Hamster Ovary) cells were cultured in Ham's F12 medium supplemented with 10% fetal calf serum (Gemini Biologicals), 10 μg/ml penicillin and streptomycin, and were maintained in a humidified 37° C. incubator (Thermo Electron, Steri-Cycle) with 5% CO2. 24 hours before transfection, cells were plated in T175 flasks (5×10^6 cells/flask) or T75 flasks (1.7×10^6 cells/flask). Transient transfection of CHO cells was performed using TransIT-CHO reagents (Minis, Madison, Wis.) with a mixing ratio of 2:6:1 between plasmid DNA (in μg), TransIT-CHO (in μl) and CHO-mojo (in μl).
(§2) Plates are maintained at 37° C. in a humidified atmosphere with 7% CO2 overnight. Four (4) hours after cell seeding, compounds dissolved in DMSO at 10 mM were added to cells at final concentrations of 20 micromolar (μM) to 20 nanomolar (nM) in 0.2% DMSO in triplicate plates. Approximately 40 hours later, cytotoxicity in the assay well was characterized by addition of the dye resazurin (O'Brien, Wilson et al. 2000) to a final concentration of 3 μM. […] Percent viability was determined as 2 hour fluorescence, minus background at t=0 hours, normalized to DMSO controls. For detection of luciferase activity, media was removed from plates after the measurement of resazurin conversion, and SteadyLite luciferase reagent (Perkin-Elmer) was added (30 μl/well). Luminescence is detected with a Victor 2-V plate reader (Perkin-Elmer) and normalized to luciferase activity of DMSO control wells alone.
A transcriptional assay for LXRα, using a Gal4-LXRα hybrid, was implemented in order to compare RORγ ligand potencies. In addition to LXRα, transcriptional assays for a number of other major nuclear receptors were developed.

The target in test [2] is T2, mRORγ LBD (Mus musculus, UniProt P51450).
T2 construct: made in house; host or cells: Sf9 insect cells, baculovirus; cleared lysate used directly
T2 sequence (P51450 251-516): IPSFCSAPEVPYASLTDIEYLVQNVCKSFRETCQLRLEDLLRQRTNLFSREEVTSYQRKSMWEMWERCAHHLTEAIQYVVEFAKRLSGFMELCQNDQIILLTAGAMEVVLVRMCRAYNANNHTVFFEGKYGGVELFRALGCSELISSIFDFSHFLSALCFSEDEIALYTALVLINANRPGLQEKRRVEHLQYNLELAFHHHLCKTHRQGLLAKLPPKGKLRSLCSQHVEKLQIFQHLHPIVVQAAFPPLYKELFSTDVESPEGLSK
Put plainly: Biochemical assay, coregulatory peptide recruitment to GST-RORγ LBD (FRET). The text has this: GST-RORγ was generated by subcloning the RORγ-LBD into pET-41a, a vector which expresses GST fusion proteins in bacteria.
The cloning steps for GST-RORγ were as follows. The mRORγ LBD was excised from Gal4-mRORγ (see above for cloning steps) at BamHI and HindIII sites of Sequence 1 and cloned into the corresponding sites of pET-41a(+) (EMD Biosciences, San Diego, Calif.). A GST-mRORγ fragment was then excised from pET-41a(+) at XbaI and XhoI sites and cloned into a pcDNA3.1vector (Invitrogen, Carlsbad, Calif.) restricted at NheI and XhoI sites. Plasmid GST-mRORγ-pcDNA3.1 was used as a PCR template to generate a GST-mRORγ fragment that was later cloned into pENTR/D-TOPO vector (Invitrogen, Carlsbad, Calif.) by standard cloning techniques recommended by the manufacturer of the vector. The nucleotide sequence of GST-mRORγ is shown below:
For baculoviral expression of RORγ, the cDNA fragment of GST-RORγ— LBD, was subcloned from pET-41a into the pENTR/D-TOPO vector using a commercially-available kit (BaculoDirect, Invitrogen). Briefly, GST-RORγ carried by pENTR/D-TOPO was transfected into mono-layer Sf9 cells (8×10^5/well in 6-well plates) by Cellfectin (Invitrogen). Sf9 cells were incubated at 27° C. in a non-humidified incubator for 72 hours. Cell media was collected as P1 viral stock and used to further infect Sf9 cells to generate P2 and P3 virus. […] A plaque assay was performed to determine the titer of P3 virus and to isolate single plaques. P4 virus was generated from a single plaque and propagated on a larger scale.
Adherent SF9 cells were infected with baculovirus carrying GST-RORγ and were cultured for 72 hours. Sf9 cell were then subject to a brief sonication in a lysis buffer (20 mM phosphate, pH 6.8, 50 mM KCl, 50 mM NaCl, 0.5 mM EDTA, 50% glycerol, 0.001% NP-40 and 1 mM DTT) and centrifuged at 3000 rpm for 15 minutes. […] Cleared cell lysate was stored at −70° C. and is directly utilized in the coregulatory peptide recruitment assay.
The labeled probes anti-GST-APC and SA-RPE were purchased from Prozyme (San Leandro, Calif.). Compounds were added directly from a DMSO solution to a final concentration of 1-2% DMSO. Fluorescence was measured on a Wallac Victor 2 V plate reader equipped with a 670/40 nm filter (Omega Optical, Brattleboro, Vt.) for APC emission (Channel A) and a 600/25 bandpass filter for monitoring the RPE emission (Channel B).

Test [3] has as its target T3, mRORγ (Mus musculus, UniProt P51450).
T3 construct: expressed in transfected cells; host or cells: CHO cells, transient transfection
As to the kind of experiment: Transcriptional assay, Gal4-mRORγ with luciferase reporter in CHO cells. Type of test: cell-based. The protocol:
The complete Gal4-mRORγ nucleotide sequence is shown below:
as §1, §2
On the technique in general: A reporter such as luciferase makes a cellular process visible.

Test [4] deals with T4, human RORγ (Homo sapiens, UniProt P51449).
T4 construct: expressed in transfected cells; host or cells: CHO cells, transient transfection
T4 sequence (P51449 253-518): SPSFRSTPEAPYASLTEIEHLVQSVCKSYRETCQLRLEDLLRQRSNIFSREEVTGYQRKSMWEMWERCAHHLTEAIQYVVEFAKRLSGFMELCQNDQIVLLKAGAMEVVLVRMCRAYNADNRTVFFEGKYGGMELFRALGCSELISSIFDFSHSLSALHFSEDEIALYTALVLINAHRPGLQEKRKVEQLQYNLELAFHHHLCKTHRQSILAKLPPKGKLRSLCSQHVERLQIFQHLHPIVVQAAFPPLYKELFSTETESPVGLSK
Put plainly: Transcriptional assay of human RORγ (Gal4-hRORγ). The class given is cell-based. The note with it: Table 4B. Here is the method: The complete Gal4-hRORγ nucleotide sequence is shown below:
as §1, §2

The target in test [5] is T5, hPR (progesterone receptor) (Homo sapiens, UniProt P06401).
T5 construct: 687-933; expressed in transfected cells; host or cells: CHO cells, transient transfection
T5 sequence (P06401 687-933): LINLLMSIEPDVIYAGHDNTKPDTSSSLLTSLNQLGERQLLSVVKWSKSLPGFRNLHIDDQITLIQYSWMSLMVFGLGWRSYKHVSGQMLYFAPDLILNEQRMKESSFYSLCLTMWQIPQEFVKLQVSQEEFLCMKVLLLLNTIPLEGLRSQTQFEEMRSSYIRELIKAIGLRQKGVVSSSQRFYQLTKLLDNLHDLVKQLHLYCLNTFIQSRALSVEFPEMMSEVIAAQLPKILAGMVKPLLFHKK
As to the kind of experiment: Crossreactive receptor transcriptional assay (Gal4 hybrid). Type of test: cell-based. The settings on record: activity of standard ligand at 20 μM. Here is the method: as §1, §2

Test [6] relates to TH-17 cell differentiation from naïve CD4+ T cells. As to the kind of experiment: Differentiation of naïve CD4+ T cells, intracellular IL-17/IFN-γ staining by FACS (TH-17 protocol, TGFβ + IL-6). The class given is cell-based, mouse. The note with it: Table 8, naïve CD4 cells, 5 days, mean ±SD.
Setting [7] is: Table 1, mRORγ and peptide K1, read-out: Assay EC50 in micromolar at mRORγ Biochemical.
Setting [8] is: Table 7, taken from Table 1 (peptide K1), read-out: Assay EC50 in micromolar at mRORγ Biochemical.
Setting [9] is: Table 1, antagonists, inhibition of basal Gal4-mRORγ transcription in CHO cells, read-out: Assay EC50 in micromolar at mRORγ Transcriptional.
The mark [10] stands for this setting: Table 7, taken from Table 1, read-out: Assay EC50 in micromolar at mRORγ Transcriptional.
The mark [11] stands for this setting: Table 4A, peptide K1, no agonist present, medians of two or more assays, unit inferred, read-out: EC50 Biochemical.
The mark [12] stands for this setting: Table 4A, medians of two or more assays, unit inferred, read-out: EC50 Transcriptional.

Like-named read-outs stand apart in the source and are kept apart here.

T3 sequence (P51450 with tags, fused parts or gaps): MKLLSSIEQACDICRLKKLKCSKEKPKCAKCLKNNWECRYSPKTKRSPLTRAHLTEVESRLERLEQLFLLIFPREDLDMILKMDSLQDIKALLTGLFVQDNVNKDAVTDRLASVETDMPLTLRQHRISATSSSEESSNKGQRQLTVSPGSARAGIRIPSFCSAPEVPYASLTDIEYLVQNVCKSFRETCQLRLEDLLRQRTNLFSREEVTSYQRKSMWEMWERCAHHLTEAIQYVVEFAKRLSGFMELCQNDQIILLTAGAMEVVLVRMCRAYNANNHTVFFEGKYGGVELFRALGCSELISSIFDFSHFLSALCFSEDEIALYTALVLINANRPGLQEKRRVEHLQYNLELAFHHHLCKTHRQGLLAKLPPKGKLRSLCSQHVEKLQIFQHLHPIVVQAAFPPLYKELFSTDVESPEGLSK

Regarding `O=C(O)CN(c1ccc(C(O)(C(F)(F)F)C(F)(F)F)cc1)S(=O)(=O)c1ccccc1` [OR-1046, {Benzenesulfonyl-[4-(2,2,2-trifluoro-1-hydroxy-1-trifluoromethyl-ethyl)-phenyl]-amino}-acetic acid], the Emax in test [1] was less than 5%. Moreover, the EC50 is more than 100000 nM in test [1]; more than 100 µM in test [2] (setting [7]); more than 100 µM in test [2] (setting [8]); more than 20 µM in test [3] (setting [9]); more than 20 µM in test [3] (setting [10]).
The compound `CCCCc1ccc(S(=O)(=O)N(CC)c2ccc(C(O)(C(F)(F)F)C(F)(F)F)cc2)cc1` [OR-1047, 4-Butyl-N-ethyl-N-[4-(2,2,2-trifluoro-1-hydroxy-1-trifluoromethyl-ethyl)-phenyl]-benzenesulfonamide] displayed an Emax in test [1] of less than 5%. The EC50 in test [1] was more than 20000 nM; in test [2] (setting [7]), 5.8 µM; in test [2] (setting [8]), 5.8 µM; in test [3] (setting [9]), 3.6 µM; in test [3] (setting [10]), 3.6 µM. Also, the “specificity for RORγ versus LXRα” value in test [1] is recorded as “more specific for RORγ than LXRα”.
Compound `CCN(c1ccc(C(O)(C(F)(F)F)C(F)(F)F)cc1)S(=O)(=O)c1ccc(Br)cc1` [OR-1048, 4-Bromo-N-ethyl-N-[4-(2,2,2-trifluoro-1-hydroxy-1-trifluoromethyl-ethyl)-phenyl]-benzene sulfonamide] returned an Emax in test [1] of more than 80%. Moreover, the EC50 in test [1] turned out to be 570 nM; in test [2] (setting [7]) it was 0.42 µM; in test [2] (setting [8]), 0.42 µM; in test [3] (setting [9]) it was 0.12 µM; in test [3] (setting [10]) it was 0.12 µM. Besides, the “specificity for RORγ versus LXRα” value in test [1] is listed as “more specific for RORγ than LXRα”.
`CCN(c1ccc(C(O)(C(F)(F)F)C(F)(F)F)cc1)S(=O)(=O)c1ccc(C)cc1` [OR-1052, N-Ethyl-4-methyl-N-[4-(2,2,2-trifluoro-1-hydroxy-1-trifluoromethyl-ethyl)-phenyl]-benzenesulfonamide] displayed an Emax in test [1] of more than 80%. Besides, the EC50 in test [1] was determined as 810 nM; in test [2] (setting [7]) it was 0.89 µM; in test [2] (setting [8]) it was 0.89 µM; in test [3] (setting [9]) it was 0.21 µM; in test [3] (setting [10]), 0.21 µM. For the same compound, the “specificity for RORγ versus LXRα” value in test [1] was “more specific for RORγ than LXRα”.
For `CCn1c(CNc2cccc(Cl)c2)nnc1SCC(=O)Nc1cccc2ccccc12` [OR-133097, 2-{5-[(3-Chloro-phenylamino)-methyl]-4-ethyl-4H-[1,2,4]triazol-3-ylsulfanyl}N-naphthalen-1-yl-acetamide], the values for the EC50 in test [2] (setting [11]), in test [3] (setting [12]) and in test [4] were 1.34 µM, 1.44 µM and 5 µM, respectively.
Taken in the same sequence, the figures for `CCn1c(CNc2cccc(C(F)(F)F)c2)nnc1SCC(=O)Nc1cccc2ccccc12` [OR-133099, 2-{4-Ethyl-5-[(3-trifluoromethyl-phenylamino)-methyl]-4H-[1,2,4]triazol-3-ylsulfanyl}N-naphthalen-1-yl-acetamide] were 1.33 µM, 1.04 µM and 2.4 µM.
Taken in the same sequence, the figures for `Cn1c(CNc2cccc(Cl)c2)nnc1SCC(=O)Nc1cccc2ccccc12` [OR-133167, 2-{5-[(3-Chloro-phenylamino)-methyl]-4-methyl-4H-[1,2,4]triazol-3-ylsulfanyl}N-naphthalen-1-yl-acetamide] were 3.4 µM, 3.3 µM and 9.4 µM.
Taken in the same sequence, the figures for `CCn1c(CNc2ccc(C)c(Cl)c2)nnc1SCC(=O)Nc1cccc2ccccc12` [OR-133171, 2-{5-[(3-Chloro-4-methyl-phenylamino)-methyl]-4-ethyl-4H-[1,2,4]triazol-3-ylsulfanyl}N-naphthalen-1-yl-acetamide] were 0.44 µM, 0.49 µM and 1.7 µM.
Consider `CC(=O)[C@H]1CC[C@H]2[C@@H]3CCC4=CC(=O)CC[C@]4(C)[C@H]3CC[C@]12C` [Progesterone, progesterone, reference compound], for which the “Efficacy at hPR” value in test [5] was found to be 6X.
Regarding “IL-6: exogenous cytokine used for TH-17 differentiation”, in test [6] (20 ng/ml), the “IL-17 (%)” value came to 1.20 ± 0.04%.
For “TGFβ1: exogenous cytokine used for TH-17 differentiation”, in test [6] (4 ng/ml), the “IL-17 (%)” value is reported as 0.21 ± 0.02%.
